Consider 16 compounds from patent publication US20240109917A1 (ACTELION PHARMACEUTICALS LTD, priority 2020, published 2024).

Experiment [1] deals with His6-TEV-PDGFRβ (557-1016) (Homo sapiens (Human), UniProt P09619). Briefly: PDGFRβ HTRF Assay. The format is biochemical. To be noted: read-out: PDGFR HTRF IC50. Put shortly:
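Human PDGFRβ (557-1016) pre-incubated with compound for 30 min at RT in pH 7.5 HEPES/MgCl2/EGTA/Brij-35/DTT buffer. Reaction started with ATP and TK-biotin peptide, run 3 h at RT, then quenched with EDTA-containing Eu-cryptate antibody/streptavidin-XL665. HTRF 665/620 nm ratio read after 60 min; percent inhibition relative to DMSO and 10 μM imatinib controls.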
(In TR-FRET formats the signal depends on donor and acceptor labels being close together.)

The target in the next experiment is VEGFR2, unphosphorylated (Homo sapiens (Human), UniProt P35968). The experiment can be described thus: VEGFR ADP GLO Assay. The format is biochemical. (ADP-Glo turns the ADP formed in a reaction into a luminescent signal.)
VEGFR2, unphosphorylated, sequence (P35968 20-1356): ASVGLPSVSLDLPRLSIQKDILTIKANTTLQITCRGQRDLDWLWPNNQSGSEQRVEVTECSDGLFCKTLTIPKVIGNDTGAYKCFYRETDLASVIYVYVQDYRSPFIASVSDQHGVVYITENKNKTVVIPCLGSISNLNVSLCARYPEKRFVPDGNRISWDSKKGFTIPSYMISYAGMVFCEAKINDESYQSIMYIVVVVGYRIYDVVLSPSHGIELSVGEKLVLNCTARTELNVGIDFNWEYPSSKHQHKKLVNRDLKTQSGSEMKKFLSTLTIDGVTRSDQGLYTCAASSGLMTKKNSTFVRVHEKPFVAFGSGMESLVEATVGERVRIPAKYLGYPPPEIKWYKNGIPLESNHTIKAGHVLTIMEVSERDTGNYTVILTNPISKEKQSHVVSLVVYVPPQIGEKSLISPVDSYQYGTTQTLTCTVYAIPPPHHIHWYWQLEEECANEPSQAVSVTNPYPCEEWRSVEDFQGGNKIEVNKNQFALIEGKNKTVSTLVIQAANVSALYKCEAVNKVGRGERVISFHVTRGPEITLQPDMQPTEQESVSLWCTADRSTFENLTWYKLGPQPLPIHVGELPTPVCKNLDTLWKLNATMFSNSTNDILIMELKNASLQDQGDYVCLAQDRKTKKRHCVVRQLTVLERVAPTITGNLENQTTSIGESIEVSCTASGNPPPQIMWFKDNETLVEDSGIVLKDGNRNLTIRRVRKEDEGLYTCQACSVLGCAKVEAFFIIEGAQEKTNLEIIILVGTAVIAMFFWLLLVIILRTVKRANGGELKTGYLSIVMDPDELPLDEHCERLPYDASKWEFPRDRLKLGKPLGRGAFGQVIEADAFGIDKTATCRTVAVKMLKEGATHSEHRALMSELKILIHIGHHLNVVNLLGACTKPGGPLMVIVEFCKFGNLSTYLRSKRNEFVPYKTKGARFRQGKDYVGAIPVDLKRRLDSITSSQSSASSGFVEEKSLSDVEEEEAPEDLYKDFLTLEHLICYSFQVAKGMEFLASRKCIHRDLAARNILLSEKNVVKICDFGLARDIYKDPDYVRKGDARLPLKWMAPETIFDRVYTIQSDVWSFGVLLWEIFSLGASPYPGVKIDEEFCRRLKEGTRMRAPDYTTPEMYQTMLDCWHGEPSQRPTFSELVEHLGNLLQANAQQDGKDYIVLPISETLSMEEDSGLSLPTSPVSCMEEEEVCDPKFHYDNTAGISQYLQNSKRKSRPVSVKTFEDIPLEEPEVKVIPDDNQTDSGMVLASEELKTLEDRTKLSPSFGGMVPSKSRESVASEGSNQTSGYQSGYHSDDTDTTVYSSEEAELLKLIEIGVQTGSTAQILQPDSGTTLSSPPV
The target of experiment [2] is Tb-labeled inactive PDGFRβ (Homo sapiens (Human), UniProt P09619). The experiment can be described thus: PDGFRβ LanthaScreen Assay. The experiment is classed as binding. Conditions: read-out: PDGFR Lantha IC50.
Tb-labeled inactive PDGFRβ, sequence (P09619 33-1106): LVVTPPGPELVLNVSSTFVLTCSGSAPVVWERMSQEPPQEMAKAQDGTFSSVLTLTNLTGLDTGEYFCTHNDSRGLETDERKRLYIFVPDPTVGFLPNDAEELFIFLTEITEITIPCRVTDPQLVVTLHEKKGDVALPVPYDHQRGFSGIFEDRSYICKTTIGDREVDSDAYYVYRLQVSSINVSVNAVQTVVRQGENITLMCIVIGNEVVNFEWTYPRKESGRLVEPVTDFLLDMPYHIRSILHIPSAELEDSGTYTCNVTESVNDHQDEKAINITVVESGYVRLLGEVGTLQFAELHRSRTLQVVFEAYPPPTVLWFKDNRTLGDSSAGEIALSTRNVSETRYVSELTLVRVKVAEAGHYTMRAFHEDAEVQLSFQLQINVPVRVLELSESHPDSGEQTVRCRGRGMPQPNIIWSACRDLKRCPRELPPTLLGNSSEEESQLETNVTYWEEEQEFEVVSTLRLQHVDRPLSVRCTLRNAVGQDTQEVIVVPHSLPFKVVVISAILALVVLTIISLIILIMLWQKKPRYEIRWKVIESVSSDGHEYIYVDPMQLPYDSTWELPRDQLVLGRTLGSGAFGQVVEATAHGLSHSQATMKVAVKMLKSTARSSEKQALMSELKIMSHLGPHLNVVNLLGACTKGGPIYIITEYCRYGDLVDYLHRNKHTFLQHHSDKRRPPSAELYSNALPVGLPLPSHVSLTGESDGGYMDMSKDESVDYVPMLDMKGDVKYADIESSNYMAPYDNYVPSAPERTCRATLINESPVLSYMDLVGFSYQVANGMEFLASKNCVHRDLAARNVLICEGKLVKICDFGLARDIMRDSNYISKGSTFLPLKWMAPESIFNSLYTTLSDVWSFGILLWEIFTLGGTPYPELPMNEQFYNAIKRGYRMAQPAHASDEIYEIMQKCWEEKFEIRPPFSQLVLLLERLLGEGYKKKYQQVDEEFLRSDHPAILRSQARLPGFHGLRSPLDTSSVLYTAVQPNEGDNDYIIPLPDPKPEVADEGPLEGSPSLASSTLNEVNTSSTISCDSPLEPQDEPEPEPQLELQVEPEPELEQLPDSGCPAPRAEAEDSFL

His6-TEV-PDGFRβ (557-1016), sequence (P09619 557-1016): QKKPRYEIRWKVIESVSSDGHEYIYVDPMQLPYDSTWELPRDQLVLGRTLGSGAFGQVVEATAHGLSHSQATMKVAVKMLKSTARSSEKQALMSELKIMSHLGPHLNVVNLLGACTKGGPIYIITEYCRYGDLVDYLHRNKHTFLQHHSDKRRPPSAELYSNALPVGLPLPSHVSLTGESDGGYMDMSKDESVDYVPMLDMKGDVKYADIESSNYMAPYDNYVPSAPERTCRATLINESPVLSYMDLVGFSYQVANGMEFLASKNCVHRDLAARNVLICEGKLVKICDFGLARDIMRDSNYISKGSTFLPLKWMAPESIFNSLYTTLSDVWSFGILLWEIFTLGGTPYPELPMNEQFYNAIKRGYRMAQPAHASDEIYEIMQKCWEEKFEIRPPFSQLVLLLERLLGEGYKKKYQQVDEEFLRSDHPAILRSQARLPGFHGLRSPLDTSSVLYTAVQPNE

A word on the IC50: it is the concentration that inhibits the measured activity by half. As to `Cc1ncc(NC(=O)CN2CCCC23CCC3)cc1NC(=O)c1cnn2cc(-c3cnn(CCO)c3)sc12` [Example 29, N-(5-(2-(5-azaspiro[3.4]octan-5-yl)acetamido)-2-methylpyridin-3-yl)-2-(1-(2-hydroxyethyl)-1H-pyrazol-4-yl)pyrazolo[5,1-b]thiazole-7-carboxamide], the IC50 in experiment [1] was 0.4 nM; against VEGFR2, unphosphorylated, above 7500 nM; in experiment [2], 3.4 nM.

Consider `Cc1ncc(NC(=O)CN2CCC3(CCC3)C2)cc1NC(=O)c1cnn2cc(-c3cnn(CCO)c3)sc12` [Example 30, N-(5-(2-(6-azaspiro[3.4]octan-6-yl)acetamido)-2-methylpyridin-3-yl)-2-(1-(2-hydroxyethyl)-1H-pyrazol-4-yl)pyrazolo[5,1-b]thiazole-7-carboxamide], for which the IC50 in experiment [1] was 0.5 nM; against VEGFR2, unphosphorylated it was above 7500 nM; in experiment [2], 3.3 nM.

For the compound `Cc1ncc(NC(=O)CN2CCC3(CC2)CC3)cc1NC(=O)c1cnn2cc(-c3cnn(CCO)c3)sc12` [Example 31, N-(5-(2-(6-azaspiro[2.5]octan-6-yl)acetamido)-2-methylpyridin-3-yl)-2-(1-(2-hydroxyethyl)-1H-pyrazol-4-yl)pyrazolo[5,1-b]thiazole-7-carboxamide], the concentration for half-maximal inhibition (IC50) in experiment [1] was 0.6 nM; at VEGFR2, unphosphorylated it was above 7500 nM; in experiment [2] it was 5.1 nM.

On to `Cc1ncc(NC(=O)CN2CCC3(CC3)C2)cc1NC(=O)c1cnn2cc(-c3cnn(CCO)c3)sc12` [Example 32, N-(5-(2-(5-azaspiro[2.4]heptan-5-yl)acetamido)-2-methylpyridin-3-yl)-2-(1-(2-hydroxyethyl)-1H-pyrazol-4-yl)pyrazolo[5,1-b]thiazole-7-carboxamide], for which the IC50 in experiment [1] is 0.7 nM; on VEGFR2, unphosphorylated it was above 7500 nM; in experiment [2], 5.5 nM.

On to `Cc1ncc(NC(=O)CN2CCCC[C@H]2C)cc1NC(=O)c1cnn2cc(-c3cnn(CCO)c3)sc12` [Example 33, (R)-2-(1-(2-hydroxyethyl)-1H-pyrazol-4-yl)-N-(2-methyl-5-(2-(2-methyl-piperidin-1-yl)acetamido)pyridin-3-yl)pyrazolo[5,1-b]thiazole-7-carboxamide], for which the IC50 in experiment [1] is 0.7 nM; on VEGFR2, unphosphorylated, above 7500 nM; in experiment [2], 9.3 nM.

`COCCn1cc(-c2cn3ncc(C(=O)Nc4cc(NC(=O)CN5CC6CCC5CC6)cnc4C)c3s2)cn1` [Example 331, N-(5-(2-(2-azabicyclo[2.2.2]octan-2-yl)acetamido)-2-methylpyridin-3-yl)-2-(1-(2-methoxyethyl)-1H-pyrazol-4-yl)pyrazolo[5,1-b]thiazole-7-carboxamide]: the IC50 in experiment [1] is 0.4 nM; against VEGFR2, unphosphorylated, above 7500 nM; in experiment [2] it was 3.3 nM.

Take `COCCn1cc(-c2cn3ncc(C(=O)Nc4cc(NC(=O)CN5CCCC56CCC6)cnc4C)c3s2)cn1` [Example 332, N-(5-(2-(5-azaspiro[3.4]octan-5-yl)acetamido)-2-methylpyridin-3-yl)-2-(1-(2-methoxyethyl)-1H-pyrazol-4-yl)pyrazolo[5,1-b]thiazole-7-carboxamide]: the IC50 in experiment [1] was 0.6 nM; against VEGFR2, unphosphorylated, above 7500 nM; in experiment [2] it was 4.1 nM.

As to `COCCn1cc(-c2cn3ncc(C(=O)Nc4cc(NC(=O)CN5CCC56CCC6)cnc4C)c3s2)cn1` [Example 333, N-(5-(2-(1-azaspiro[3.3]heptan-1-yl)acetamido)-2-methylpyridin-3-yl)-2-(1-(2-methoxyethyl)-1H-pyrazol-4-yl)pyrazolo[5,1-b]thiazole-7-carboxamide], the IC50 in experiment [1] was 0.4 nM; against VEGFR2, unphosphorylated, above 7500 nM; in experiment [2], 3.1 nM.

For the compound `COCCn1cc(-c2cn3ncc(C(=O)Nc4cc(NC(=O)CN5C[C@H]6CC[C@@H]5C6)cnc4C)c3s2)cn1` [Example 334, N-(5-(2-((1R,4S)-2-azabicyclo[2.2.1]heptan-2-yl)acetamido)-2-methylpyridin-3-yl)-2-(1-(2-methoxyethyl)-1H-pyrazol-4-yl)pyrazolo[5,1-b]thiazole-7-carboxamide], the IC50 in experiment [1] is 0.5 nM; on VEGFR2, unphosphorylated it was above 7500 nM; in experiment [2], 9.1 nM.

Turning to `COCCn1cc(-c2cn3ncc(C(=O)Nc4cc(NC(=O)CN5CCCC6(CC6)C5)cnc4C)c3s2)cn1` [Example 335, N-(5-(2-(5-azaspiro[2.5]octan-5-yl)acetamido)-2-methylpyridin-3-yl)-2-(1-(2-methoxyethyl)-1H-pyrazol-4-yl)pyrazolo[5,1-b]thiazole-7-carboxamide], the 50% inhibitory concentration (IC50) in experiment [1] was 0.4 nM; against VEGFR2, unphosphorylated, above 7500 nM; in experiment [2], 3 nM.

As to `COCCn1cc(-c2cn3ncc(C(=O)Nc4cc(NC(=O)CN5CCC(C)(C)C5)cnc4C)c3s2)cn1` [Example 336, N-(5-(2-(3,3-dimethylpyrrolidin-1-yl)acetamido)-2-methylpyridin-3-yl)-2-(1-(2-methoxyethyl)-1H-pyrazol-4-yl)pyrazolo[5,1-b]thiazole-7-carboxamide], the IC50 in experiment [1] is 0.4 nM; against VEGFR2, unphosphorylated, above 7500 nM; in experiment [2], 3.3 nM.

On to `COCCn1cc(-c2cn3ncc(C(=O)Nc4cc(NC(=O)CN5CCCC5)cnc4C)c3s2)cn1` [Example 337, 2-(1-(2-methoxyethyl)-1H-pyrazol-4-yl)-N-(2-methyl-5-(2-(pyrrolidin-1-yl)acetamido)pyridin-3-yl)pyrazolo[5,1-b]thiazole-7-carboxamide], for which the IC50 was 1.8 nM in experiment [1]; above 7500 nM at VEGFR2, unphosphorylated; 46.2 nM in experiment [2].

In the case of `COCCn1cc(-c2cn3ncc(C(=O)Nc4cc(NC(=O)CN5CCCCC5)cnc4C)c3s2)cn1` [Example 338, 2-(1-(2-methoxyethyl)-1H-pyrazol-4-yl)-N-(2-methyl-5-(2-(piperidin-1-yl)acetamido)pyridin-3-yl)pyrazolo[5,1-b]thiazole-7-carboxamide], the IC50 in experiment [1] is 0.4 nM; against VEGFR2, unphosphorylated, above 7500 nM; in experiment [2], 4.8 nM.

As for `COCCn1cc(-c2cn3ncc(C(=O)Nc4cc(NC(=O)CN5CCCCCC5)cnc4C)c3s2)cn1` [Example 339, N-(5-(2-(azepan-1-yl)acetamido)-2-methylpyridin-3-yl)-2-(1-(2-methoxyethyl)-1H-pyrazol-4-yl)pyrazolo[5,1-b]thiazole-7-carboxamide], the IC50 was 0.4 nM in experiment [1]; above 7500 nM at VEGFR2, unphosphorylated; 3 nM in experiment [2].

Take `COCCn1cc(-c2cn3ncc(C(=O)Nc4cc(NC(=O)CN5C6CCC5CC6)cnc4C)c3s2)cn1` [Example 340, N-(5-(2-(7-azabicyclo[2.2.1]heptan-7-yl)acetamido)-2-methylpyridin-3-yl)-2-(1-(2-methoxyethyl)-1H-pyrazol-4-yl)pyrazolo[5,1-b]thiazole-7-carboxamide]: the IC50 in experiment [1] is 0.5 nM; against VEGFR2, unphosphorylated it was above 7500 nM; in experiment [2], 7.5 nM.

Regarding `COCCn1cc(-c2cn3ncc(C(=O)Nc4cc(NC(=O)CN5CCC(C6CC6)C5)cnc4C)c3s2)cn1` (stereo not drawn) [Example 341, N-(5-(2-(3-cyclopropylpyrrolidin-1-yl)acetamido)-2-methylpyridin-3-yl)-2-(1-(2-methoxyethyl)-1H-pyrazol-4-yl)pyrazolo[5,1-b]thiazole-7-carboxamide], the IC50 in experiment [1] was 0.4 nM; at VEGFR2, unphosphorylated, above 7500 nM; in experiment [2], 4.6 nM.
